In article PMC6289772 (Cancer, 2018):

Tests used:
[1] = cited from earlier work
[2] = type: in vivo, human (children and adolescents)
[3] = test system: recurrent or refractory solid tumors; assay: Tumor response assessment; type: in vivo, human (children and adolescents)
[4] = Toxicity / dose-limiting toxicity evaluation, phase 1 trial; type: in vivo
[5] = Axitinib plasma pharmacokinetics, phase 1 trial; type: in vivo
[6] = median (range), Dose Level 2.4 mg/m^2, Day 1 (n=12)
[7] = median (range), Dose Level 3.2 mg/m^2, Day 1 (n=6)

CNC(=O)c1ccccc1Sc1ccc2c(/C=C/c3ccccn3)n[nH]c2c1 [Axitinib]
maximum tolerated dose (MTD) in adults ([1]; PO BID): 5 mg
median time to onset of grade 1–2 hypertension ([1]; adults): 16 days
median time to onset of grade ≥ 3 hypertension ([1]; adults): 24 days
patients with discontinuation due to axitinib related hypertension ([1]; adults): < 1%
patients with dose interruptions due to axitinib related hypertension ([1]; adults): 12%
patients with dose modification due to axitinib related hypertension ([1]; adults): 5%
trends in AKI biomarkers (KIM-1, NGAL, IL-18) during axitinib therapy ([2]; cycle 1 or between dose levels): no trends were identified
increase in urine UPC ratio per cycle ([2]; during axitinib therapy, not significant (P=0.30)): 4%
patients with partial response ([3]; alveolar soft part sarcoma, 15 patients with reportable response): One patient
duration of partial response ([3]; patient with alveolar soft part sarcoma, prior to clinical progression): 6 months
Abdominal pain, Grade 2 ([4]; human, in vivo): 1
Alanine aminotransferase increased, Grade 2 ([4]; human, in vivo): 1
Anemia, Grade 1 ([4]; human, in vivo): 1
Anorexia, Grade 1 ([4]; human, in vivo): 1
Fatigue, Grade 1 ([4]; human, in vivo): 3
Fatigue, Grade 2 ([4]; human, in vivo): 1
Headache, Grade 2 ([4]; human, in vivo): 1
Hemoglobin increased, Grade 1 ([4]; human, in vivo): 1
Hemoglobin increased, Grade 2 ([4]; human, in vivo): 2
Hemoglobin increased, Grade 3 ([4]; human, in vivo): 1
Hypertension, Grade 2 ([4]; human, in vivo): 3
Hypertension, Grade 3 ([4]; human, in vivo): 1
Hypophosphatemia, Grade 1 ([4]; human, in vivo): 1
Hypothyroidism, Grade 2 ([4]; human, in vivo): 2
Leukopenia, Grade 1 ([4]; human, in vivo): 1
Lipase increased, Grade 2 ([4]; human, in vivo): 2
Lipase increased, Grade 3 ([4]; human, in vivo): 1
Lymphopenia, Grade 1 ([4]; human, in vivo): 1
Nausea, Grade 1 ([4]; human, in vivo): 1
Nausea, Grade 2 ([4]; human, in vivo): 2
Neutropenia, Grade 2 ([4]; human, in vivo): 2
Palmar-plantar erythrodysesthesia syndrome, Grade 1 ([4]; human, in vivo): 1
Palmar-plantar erythrodysesthesia syndrome, Grade 2 ([4]; human, in vivo): 1
Proteinuria, Grade 1 ([4]; human, in vivo): 2
Proteinuria, Grade 2 ([4]; human, in vivo): 1
Vomiting, Grade 1 ([4]; human, in vivo): 1
Anemia, Grade 1 ([4]; human, in vivo, 1 cycle): 3
Anemia, Grade 2 ([4]; human, in vivo, 1 cycle): 2
Hemoglobin increased, Grade 1 ([4]; human, in vivo, 1 cycle): 3
Hypertension, Grade 2 ([4]; human, in vivo, 1 cycle): 4
Hypophosphatemia, Grade 1 ([4]; human, in vivo, 1 cycle): 2
Hypothyroidism, Grade 1 ([4]; human, in vivo, 1 cycle): 1
Hypothyroidism, Grade 2 ([4]; human, in vivo, 1 cycle): 2
Leukopenia, Grade 1 ([4]; human, in vivo, 1 cycle): 1
Lipase increased, Grade 1 ([4]; human, in vivo, 1 cycle): 1
Lipase increased, Grade 2 ([4]; human, in vivo, 1 cycle): 1
Lymphopenia, Grade 1 ([4]; human, in vivo, 1 cycle): 1
Lymphopenia, Grade 2 ([4]; human, in vivo, 1 cycle): 1
Neutropenia, Grade 2 ([4]; human, in vivo, 1 cycle): 1
Palmar-plantar erythrodysesthesia syndrome, Grade 2 ([4]; human, in vivo, 1 cycle): 2
Proteinuria, Grade 1 ([4]; human, in vivo, 1 cycle): 2
Rash acneiform, Grade 1 ([4]; human, in vivo, 1 cycle): 2
Sore throat, Grade 1 ([4]; human, in vivo, 1 cycle): 2
Thrombocytopenia, Grade 1 ([4]; human, in vivo, 1 cycle): 1
Vomiting, Grade 1 ([4]; human, in vivo, 1 cycle): 3
recommended phase 2 dose (RP2D) ([4]; human, in vivo, po, 28 days): 2.4 mg/m^2/dose
DLTs at dose level 1 ([4]; in vivo): No DLTs
growth plate abnormalities (tibia radiograph) ([4]; in vivo): No growth plate abnormalities were observed
number of grade 3 toxicities (non-dose limiting) ([4]; in vivo): three
maximum tolerated and recommended dose ([4]; orally twice daily, continuous 28-day cycles, children with refractory solid tumors): 2.4 mg/m^2/dose
median oral clearance CL/F ([5]; Day 1, children <12 years): 28.6 L/h/m^2
median oral clearance CL/F ([5]; Day 1, children ≥12 years): 19.7 L/h/m^2
median oral clearance CL/F ([5]; Day 1, females): 19.7 L/h/m^2
median oral clearance CL/F ([5]; Day 1, males): 24.2 L/h/m^2
half-life ([5]; human, plasma, oral): 2.4 h
AUC(0-t) ([5]; human, plasma, oral, 2.4 mg/m2, AUC0–8h, median (range), Dose Level 2.4 mg/m^2, Day 1 (n=12)): 91 ng·h/mL
AUC(0-t) ([5]; human, plasma, oral, 2.4 mg/m2, AUC0–8h, median (range), Dose Level 2.4 mg/m^2, Day 8 (n=12)): 147 ng·h/mL
Cmax ([5]; human, plasma, oral, 2.4 mg/m2, Cmax, median (range), Dose Level 2.4 mg/m^2, Day 1 (n=12)): 23.8 ng/mL
Cmax ([5]; human, plasma, oral, 2.4 mg/m2, Cmax, median (range), Dose Level 2.4 mg/m^2, Day 8 (n=12)): 47.4 ng/mL
half-life ([5]; human, plasma, oral, 2.4 mg/m2, Half life, median (range), Dose Level 2.4 mg/m^2, Day 1 (n=12)): 2.2 h
half-life ([5]; human, plasma, oral, 2.4 mg/m2, Half life, median (range), Dose Level 2.4 mg/m^2, Day 8 (n=12)): 2.5 h
Tmax ([5]; human, plasma, oral, 2.4 mg/m2, Tmax, median (range), Dose Level 2.4 mg/m^2, Day 1 (n=12)): 2 h
Tmax ([5]; human, plasma, oral, 2.4 mg/m2, Tmax, median (range), Dose Level 2.4 mg/m^2, Day 8 (n=12)): 1.5 h
AUC(0-t) ([5]; human, plasma, oral, 3.2 mg/m2, AUC0–8h, median (range), Dose Level 3.2 mg/m^2, Day 1 (n=6)): 134 ng·h/mL
AUC(0-t) ([5]; human, plasma, oral, 3.2 mg/m2, AUC0–8h, median (range), Dose Level 3.2 mg/m^2, Day 8 (n=5)): 140 ng·h/mL
Cmax ([5]; human, plasma, oral, 3.2 mg/m2, Cmax, median (range), Dose Level 3.2 mg/m^2, Day 1 (n=6)): 38 ng/mL
half-life ([5]; human, plasma, oral, 3.2 mg/m2, Half life, median (range), Dose Level 3.2 mg/m^2, Day 1 (n=6)): 2.6 h
half-life ([5]; human, plasma, oral, 3.2 mg/m2, Half life, median (range), Dose Level 3.2 mg/m^2, Day 8 (n=5)): 1.8 h
Tmax ([5]; human, plasma, oral, 3.2 mg/m2, Tmax, median (range), Dose Level 3.2 mg/m^2, Day 1 (n=6)): 2 h
Tmax ([5]; human, plasma, oral, 3.2 mg/m2, Tmax, median (range), Dose Level 3.2 mg/m^2, Day 8 (n=5)): 2 h
half-life ([5]; human, plasma, oral, half-life (range), all patients): 0.7 to 5.2 h
half-life ([5]; human, plasma, oral, median half-life, Day 8, all patients): 2.5 h
accumulation ratio (day 8 AUC0–8h versus day 1 AUC0–8h) ([5]; median (range), all patients): 1.8 (0.3 – 4.7)
Cl/F [5, 6]: 28.0 (9.8–230.1) L/h
Cl/m^2 [5, 6]: 21.4 (6.0–230.1) L/h/m^2
V/F [5, 6]: 74.9 (43.6–888.7) L
V/m^2 [5, 6]: 67.4 (39.1–888.7) L/m^2
Cl/F [5, 7]: 32.6 (14.2–65.2) L/h
Cl/m^2 [5, 7]: 19.9 (11.4–61.5) L/h/m^2
V/F [5, 7]: 99.4 (48.9–150.6) L
V/m^2 [5, 7]: 65.5 (39.1–101.6) L/m^2
Cmax ([5]; median (range), Dose Level 3.2 mg/m^2, Day 8 (n=5)): 41.5 (15.5–76.5) ng/mL
